Values after ≈ are worked out from the molar mass of the structure shown. Read-outs that look alike come from different tables or passages of the source.
Experiments:
Format in all cases: cell-based
[1] = system: Staphylococcus aureus; test: Anti-microbial activity assay, MIC by broth microdilution; conditions: for MIC: Staphylococcus aureus
Procedure: (§1) Anti-Microbial Activity Assay.
(§2) The antibacterial activity of compounds is determined by the minimal inhibitory concentration (MIC) method. MICs for all bacteria except pneumococci and Haemophilus influenzae are obtained by broth microdilution with cation-adjusted Mueller-Hinton broth (CAMHB; BBL), according to CLSI guidelines (National Committee for Clinical Laboratory Standards. 2003. Methods for dilution antimicrobial susceptibility tests for bacteria that grow aerobically, 5th ed.; approved standard M7-A6. National Committee for Clinical Laboratory Standards, Wayne, Pa.), with the following modifications: (i) for pneumococci CAMHB is supplemented with 5% (^v/v) horse serum; (ii) for Haemophilus influenzae CAMHB is supplemented with 5% (^v/v) Fildes enrichment (BBL) (Pankuch, G. A., Hoellman, D. B., Lin, G., Bajaksouzian, S., Jacobs, M. R., and Appelbaum, P. C. 1998. Activity of HMR 3647 compared to those of five agents against Haemophilus influenzae and Moraxella catarrhalis by MIC determination and time-kill assay. Antimicrob. Agents Chemother. 42:3032-3034). Microtiter plates are incubated at 35° C. in ambient air for 20 to 24 h, then inspected using an illuminated microtiter plate reader fitted with a magnifying mirror (MIC 2000; Cooke Laboratory Products, Alexandria, Va.). Compounds of the present invention are tested against several bacteria strains comprising some Acinetobacter baumannii, Enterococcus faecalis, Enterococcus faecitan, Escherichia coli, Haemophilus influenzae, Klebsiella pneumoniae, Pseudomonas aeruginosa, Staphylococcus aureus, Staphylococcus epidermidis and Streptococcus pneumoniae.

[2] = system: Staphylococcus epidermidis; test: as above; conditions: strain ATCC14990; for MIC: Staphylococcus epidermidis
Procedure: as §1, §2

[3] = system: Escherichia coli; test: as above; conditions: for MIC: Escherichia coli
Procedure: as §1, §2

[4] = system: Streptococcus pneumoniae; test: Anti-microbial activity assay, MIC by broth microdilution (CAMHB with 5% horse serum); conditions: for MIC: Streptococcus pneumoniae
Procedure: as §1, §2

[5] = system: Staphylococcus aureus and/or Staphylococcus epidermidis; test: MIC summary statement, staphylococci; conditions: generally, for Staphylococcus aureus and/or Staphylococcus epidermidis
Procedure: as §1, §2

[6] = strain ATCC29213, read-out: MIC Staphylococcus aureus ATCC29213
[7] = strain UB1005, read-out: MIC Escherichia coli UB1005
[8] = strain ATCC49619, CAMHB with 5% horse serum, read-out: MIC Streptococcus pneumoniae ATCC49619
[9] = S. aureus ATCC29213, comparison of C4 and C3 position of the methoxyquinoline, same side chain, read-out: MIC
[10] = E. coli UB1005, comparison of C4 and C3 position of the methoxyquinoline, same side chain, read-out: MIC
[11] = S. pneumoniae ATCC49619, comparison of C4 and C3 position of the methoxyquinoline, same side chain, read-out: MIC
[12] = strain ATCC49619, CAMHB with 5% horse serum

SMILES | MIC [1, 6] [µg/mL] | MIC [2] [µg/mL] | MIC [3, 7] [µg/mL] | MIC [4, 8] [µg/mL] | also measured
COc1ccc2ncc(OCCN3CCC(N(C)Cc4ccc5c(c4)NC(=O)CS5)CC3)nc2c1 [Example 25, 6-[({1-[2-(7-methoxy-quinoxalin-2-yloxy)-ethyl]-piperidin-4-yl}-methyl-amino)-methyl]-4H-benzo[1,4]thiazin-3-one] | 8 (≈ 16.2 µM) | 16 (≈ 32.4 µM) | 8 (≈ 16.2 µM) | 16 (≈ 32.4 µM) | 
O=C1CSc2ccc(C(=O)NC3CCN(CCOc4cnc5ccc([N+](=O)[O-])cc5n4)CC3)cc2N1 [Example 13, 3-oxo-3,4-dihydro-2H-benzo[1,4]thiazine-6-carboxylic acid {1-[2-(7-nitro-quinoxalin-2-yloxy)-ethyl]-piperidin-4-yl}-amide] | 4 (≈ 7.87 µM) | > 32 | > 32 | > 32 | 
COc1ccc2ncc(C(=O)OC[C@H]3CC[C@H](NCc4ccc5c(c4)OCCO5)CC3)cc2n1 [Example 29, 6-methoxy-[1,5]naphthyridine-3-carboxylic acid trans-4-[(2,3-dihydro-benzo[1,4]dioxin-6-ylmethyl)-amino]-cyclohexylmethyl ester] | ≤ 2 | ≤ 2 | > 32 | 4 (≈ 8.63 µM) | MIC [5]: ≤ 2 µg/mL
COc1ccc2ncc(OC[C@H]3CC[C@H](NCc4ccc5c(c4)OCCO5)CC3)cc2c1 [reference compound] |  |  |  |  | MIC [1, 9]: > 32 µg/mL; MIC [3, 10]: > 32 µg/mL; MIC [4, 11]: 32 µg/mL (≈ 73.6 µM)
COc1ccc2ncc(C(=O)OC[C@H]3CC[C@H](NC(=O)c4ccc5c(n4)NC(=O)CO5)CC3)cc2n1 [Example 30, 6-methoxy-[1,5]naphthyridine-3-carboxylic acid trans-4-[(3-oxo-3,4-dihydro-2H-pyrido[3,2-b][1,4]oxazine-6-carbonyl)-amino]-cyclohexylmethyl ester] | ≤ 2 | 4 (≈ 8.14 µM) | > 32 | > 32 | MIC [5]: ≤ 2 µg/mL
CCN(Cc1ccc2c(c1)OCCO2)[C@H]1CC[C@H](COC(=O)c2cnc3ccc(OC)cc3c2)CC1 [Example 34, 6-methoxy-quinoline-3-carboxylic acid trans-4-[(2,3-dihydro-benzo[1,4]dioxin-6-ylmethyl)-ethyl-amino]-cyclohexylmethyl ester] | 8 (≈ 16.3 µM) | > 32 | > 32 | > 32 | 
COc1ccc2ncc(OCC[C@H]3CC[C@H](NC(=O)c4ccc5c(n4)NC(=O)CO5)CC3)cc2n1 [Example 3, 3-oxo-3,4-dihydro-2H-pyrido[3,2-b][1,4]oxazine-6-carboxylic acid {trans-4-[2-(6-methoxy-[1,5]naphthyridin-3-yloxy)-ethyl]-cyclohexyl}-amide] | ≤ 2 | ≤ 2 | > 32 | 16 (≈ 33.5 µM) | MIC [5]: ≤ 2 µg/mL
COc1ccc2ncc(C(=O)OC[C@H]3CC[C@H](NCCSc4cccs4)CC3)cc2n1 [Example 31, 6-methoxy-[1,5]naphthyridine-3-carboxylic acid trans-4-[2-(thiophen-2-ylsulfanyl)-ethylamino]-cyclohexylmethyl ester] | ≤ 2 | 4 (≈ 8.74 µM) | > 32 | 8 (≈ 17.5 µM) | MIC [5]: ≤ 2 µg/mL
COc1ccc2nccc(OC[C@H]3CC[C@H](NCc4ccc5c(c4)NC(=O)CO5)CC3)c2c1 [reference compound] |  |  |  |  | MIC [1, 9]: 1 µg/mL (≈ 2.23 µM); MIC [3, 10]: 1 µg/mL (≈ 2.23 µM); MIC [4, 11]: 2 µg/mL (≈ 4.47 µM)
COc1ccc2ncc(OCCN3CCC(CNC(=O)c4cc5c(cc4Cl)SCC(=O)N5)CC3)nc2c1 [Example 24, 7-chloro-3-oxo-3,4-dihydro-2H-benzo[1,4]thiazine-6-carboxylic acid {1-[2-(7-methoxy-quinoxalin-2-yloxy)-ethyl]-piperidin-4-ylmethyl}-amide] | 8 (≈ 14.8 µM) | 8 (≈ 14.8 µM) | 4 (≈ 7.38 µM) | 16 (≈ 29.5 µM) | 
CCC(Oc1cnc2ccc(OC)cc2n1)N1CCCC(NCc2ccc3c(c2)NC(=O)CS3)C1 (centres unmarked) [Example 11, 6-({1-[1-(7-methoxy-quinoxalin-2-yloxy)-propyl]-piperidin-3-ylamino}-methyl)-4H-benzo[1,4]thiazin-3-one] | 4 (≈ 8.1 µM) | 4 (≈ 8.1 µM) | 16 (≈ 32.4 µM) | 4 (≈ 8.1 µM) | 
COc1ccc2nccc(OC[C@H]3CC[C@H](NCc4ccc5c(c4)OCCO5)CC3)c2c1 [reference compound] |  |  |  |  | MIC [1, 9]: 0.5 µg/mL (≈ 1.15 µM); MIC [3, 10]: 16 µg/mL (≈ 36.8 µM); MIC [4, 11]: 0.5 µg/mL (≈ 1.15 µM)
COc1ccc2ncc(OCCN3CCC(NC(=O)c4ccc5c(c4)NC(=O)CS5)CC3)nc2c1 [Example 21, 3-oxo-3,4-dihydro-2H-benzo[1,4]thiazine-6-carboxylic acid {1-[2-(7-methoxy-quinoxalin-2-yloxy)-ethyl]-piperidin-4-yl}-amide] |  |  |  |  | MIC Staphylococcus aureus ATCC29213 ([1]; strain ATCC29213): 8 µg/mL (≈ 16.2 µM); MIC Staphylococcus epidermidis ATCC14990 [2]: 16 µg/mL (≈ 32.4 µM); MIC Escherichia coli UB1005 ([3]; strain UB1005): ≧32 mg/L; MIC Streptococcus pneumoniae ATCC49619 [4, 12]: >32 µg/mL
COc1ccc2ncc(C(=O)OC[C@H]3CC[C@H](NCc4ccc5c(c4)OCCO5)CC3)cc2c1 [Example 33, 6-methoxy-quinoline-3-carboxylic acid trans-4-[(2,3-dihydro-benzo[1,4]dioxin-6-ylmethyl)-amino]-cyclohexylmethyl ester] | 4 (≈ 8.65 µM) | 8 (≈ 17.3 µM) | > 32 | 8 (≈ 17.3 µM) | 
COc1ccc2ncc(OCCN3CCC(CNC(=O)c4cc(-c5cccs5)on4)C3)nc2c1 (centres unmarked) [Example 26, 5-thiophen-2-yl-isoxazole-3-carboxylic acid {1-[2-(7-methoxy-quinoxalin-2-yloxy)-ethyl]-pyrrolidin-3-ylmethyl}-amide] | 4 (≈ 8.34 µM) | 16 (≈ 33.4 µM) | > 32 | 8 (≈ 16.7 µM) | 
COc1ccc2ncc(OCCCN3CCC(NC(=O)c4ccc5c(c4)NC(=O)CS5)C3)nc2c1 (centres unmarked) [Example 23] |  |  |  |  | MIC Staphylococcus aureus ATCC29213 ([1]; strain ATCC29213): 4 µg/mL (≈ 8.1 µM); MIC Staphylococcus epidermidis ATCC14990 [2]: 4 µg/mL (≈ 8.1 µM); MIC Escherichia coli UB1005 ([3]; strain UB1005): 16 µg/mL (≈ 32.4 µM); MIC Streptococcus pneumoniae ATCC49619 [4, 12]: 16 µg/mL (≈ 32.4 µM)
COc1ccc2ncc(OCCN3CC(NC(=O)c4ccc5c(c4)NC(=O)CS5)C3)nc2c1 [Example 22, 3-oxo-3,4-dihydro-2H-benzo[1,4]thiazine-6-carboxylic acid {1-[2-(7-methoxy-quinoxalin-2-yloxy)-ethyl]-azetidin-3-yl}-amide] | 4 (≈ 8.59 µM) | 4 (≈ 8.59 µM) | 16 (≈ 34.4 µM) | 32 (≈ 68.7 µM) | 
COc1ccc2ncc(OC[C@H]3CC[C@H](NCc4ccc5c(c4)NC(=O)CO5)CC3)cc2c1 [reference compound] |  |  |  |  | MIC [1, 9]: > 32 µg/mL; MIC [3, 10]: > 32 µg/mL; MIC [4, 11]: 32 µg/mL (≈ 71.5 µM)
COc1cccc2ncc(OCCN3CCC(NC(=O)c4ccc5c(c4)NC(=O)CS5)CC3)nc12 [Example 12, 3-oxo-3,4-dihydro-2H-benzo[1,4]thiazine-6-carboxylic acid {1-[2-(8-methoxy-quinoxalin-2-yloxy)-ethyl]-piperidin-4-yl}-amide] | 4 (≈ 8.1 µM) | 4 (≈ 8.1 µM) | ≥ 32 | 16 (≈ 32.4 µM) | 
COc1ccc2ncc(C(=O)OC[C@H]3CC[C@H](N(C)Cc4ccc5c(c4)OCCO5)CC3)cc2c1 [Example 32, 6-methoxy-quinoline-3-carboxylic acid trans-4-[(2,3-dihydro-benzo[1,4]dioxin-6-ylmethyl)-methyl-amino]-cyclohexylmethyl ester] | 8 (≈ 16.8 µM) | 16 (≈ 33.6 µM) | > 32 | 32 (≈ 67.1 µM) | 
COc1ccc2ncc(OCCN3CCC(N(C)Cc4ccc5c(c4)OCCO5)CC3)nc2c1 [Example 10, (2,3-dihydro-benzo[1,4]dioxin-6-ylmethyl)-{1-[2-(7-methoxy-quinoxalin-2-yloxy)-ethyl]-piperidin-4-yl}-methyl-amine] | 4 (≈ 8.61 µM) | 8 (≈ 17.2 µM) | > 32 | 8 (≈ 17.2 µM) | 
COc1ccc2ncc(OCCCN3CCC(CNC(=O)c4cc5c(cc4Cl)SCCN5)C3)nc2c1 (centres unmarked) [Example 27, 7-chloro-3,4-dihydro-2H-benzo[1,4]thiazine-6-carboxylic acid {1-[3-(7-methoxy-quinoxalin-2-yloxy)-propyl]-pyrrolidin-3-ylmethyl}-amide] | 8 (≈ 15.1 µM) | 32 (≈ 60.6 µM) | 16 (≈ 30.3 µM) | 32 (≈ 60.6 µM) | 
COc1ccc2ncc(SCCN3CCC(NCc4ccc5c(c4)NC(=O)CO5)CC3)nc2c1 [Example 40] |  |  |  |  | MIC Staphylococcus aureus ATCC29213 ([1]; strain ATCC29213): ≦2 mg/L; MIC Staphylococcus epidermidis ATCC14990 [2]: ≦2 mg/L; MIC Escherichia coli UB1005 ([3]; strain UB1005): ≦2 mg/L; MIC Streptococcus pneumoniae ATCC49619 [4, 12]: ≦2 mg/L

— patent publication US9133219B2, “Bicyclic antibiotics” (Basilea Pharmaceutica AG, priority 2009, dated 2015)
